# Key:
# COLO 205 = test: NCI-60 single dose screen, sulforhodamine B; assay type: cell-based, human; conditions: Colon cancer COLO 205; single dose 10^−5 M
# Description: (§1) In this research, all of the newly synthesised quinazolinones were subjected to in vitro anticancer screening by the National Cancer Institute (USA) against 60 different human cell lines including leukaemia, non-small cell lung cancer, colon cancer, CNS cancer, melanoma, ovarian cancer, renal cancer, prostate cancer, and breast cancer. The tested compounds were evaluated at a single dose (10^−5 M). […] Regarding the benzenesulfonamide counterparts, the introduction of an electron-withdrawing group on the benzenesulfonamide moiety increased the inhibitory activity on the glioblastoma cell line SNB-75 as depicted by the chloro derivative 5c (GI% = 63.09) which was higher than that of the unsubstituted derivative 5a (GI% = 40.06) and the methyl derivative 5b (GI% = 33.03).
# (§2) 1. Cytotoxicity screening against a panel of 60 human tumor cell lines
# (§3) All the compounds were selected for NCI-60 Human Tumor Cell Lines Screen by the Developmental Therapeutics Program (DTP) at the National Cancer Institute (NCI), Maryland, USA. The operation of this screen utilizes 60 different human tumor cell lines, representing leukemia, non-small-cell lung cancer, colon cancer, CNS cancer, melanoma, ovarian cancer, renal cancer, prostate cancer and breas t cancer.
# (§4) The compounds were supplied as dry powder and a single concentration is tested in all 60 cell lines at a single dose of 10 µM solution in dimethyl sulfoxide (DMSO) using Sulforhodamine B assay. Briefly, cells are seeded in 96 well plates at an appropriate density and incubated for 1 day. After 1 day, some of the plates are processed to determine the density time zero. To the remaining plates, compounds are added at 10 µM concentration. Plates are incubated a further 2 days, then fixed and staine d with sulphorhodamine B. Growth inhibition is calculated relative to cells without drug treatment and the time zero control. The use of a time zero control allows the determination of cell kill as well as net growth inhibition. […]
# SW-620 = test: NCI-60 single dose screen, sulforhodamine B; assay type: cell-based, human; conditions: Colon cancer SW-620; single dose 10^−5 M
# Description: as §1, §2, §3, §4
# HOP-62 = test: NCI-60 single dose screen, sulforhodamine B; assay type: cell-based, human; conditions: Non-small cell lung cancer HOP-62; single dose 10^−5 M
# Description: as §1, §2, §3, §4
# OVCAR-3 = test: NCI-60 single dose screen, sulforhodamine B; assay type: cell-based, human; conditions: Ovarian cancer OVCAR-3; single dose 10^−5 M
# Description: as §1, §2, §3, §4
# KM12 = test: NCI-60 single dose screen, sulforhodamine B; assay type: cell-based, human; conditions: Colon cancer KM12; single dose 10^−5 M
# Description: as §1, §2, §3, §4
# DU-145 = test: NCI-60 single dose screen, sulforhodamine B; assay type: cell-based, human; conditions: Prostate cancer DU-145; single dose 10^−5 M
# Description: as §1, §2, §3, §4
# HS 578T = test: NCI-60 single dose screen, sulforhodamine B; assay type: cell-based, human; conditions: Breast cancer HS 578T; single dose 10^−5 M
# Description: as §1, §2, §3, §4
# NCI-H226 = test: NCI-60 single dose screen, sulforhodamine B; assay type: cell-based, human; conditions: Non-small cell lung cancer NCI-H226; single dose 10^−5 M
# Description: as §1, §2, §3, §4
# MDA-MB-435 = test: NCI-60 single dose screen, sulforhodamine B; assay type: cell-based, human; conditions: Melanoma MDA-MB-435; single dose 10^−5 M
# Description: as §1, §2, §3, §4
# SN12C = test: NCI-60 single dose screen, sulforhodamine B; assay type: cell-based, human; conditions: Renal cancer SN12C; single dose 10^−5 M
# Description: as §1, §2, §3, §4
# RPMI-8226 = test: NCI-60 single dose screen, sulforhodamine B; assay type: cell-based, human; conditions: Leukaemia RPMI-8226; single dose 10^−5 M
# Description: as §1, §2, §3, §4
# NCI-H322M = test: NCI-60 single dose screen, sulforhodamine B; assay type: cell-based, human; conditions: Non-small cell lung cancer NCI-H322M; single dose 10^−5 M
# Description: as §1, §2, §3, §4
# K-562 = test: NCI-60 single dose screen, sulforhodamine B; assay type: cell-based, human; conditions: Leukaemia K-562; single dose 10^−5 M
# Description: as §1, §2, §3, §4
# HT29 = test: NCI-60 single dose screen, sulforhodamine B; assay type: cell-based, human; conditions: Colon cancer HT29; single dose 10^−5 M
# Description: as §1, §2, §3, §4
# NCI-H23 = test: NCI-60 single dose screen, sulforhodamine B; assay type: cell-based, human; conditions: Non-small cell lung cancer NCI-H23; single dose 10^−5 M
# Description: as §1, §2, §3, §4
# RXF 393 = test: NCI-60 single dose screen, sulforhodamine B; assay type: cell-based, human; conditions: Renal cancer RXF 393; single dose 10^−5 M
# Description: as §1, §2, §3, §4
# NCI/ADR-RES = test: NCI-60 single dose screen, sulforhodamine B; assay type: cell-based, human; conditions: Ovarian cancer NCI/ADR-RES; single dose 10^−5 M
# Description: as §1, §2, §3, §4
# NCI-H460 = test: NCI-60 single dose screen, sulforhodamine B; assay type: cell-based, human; conditions: Non-small cell lung cancer NCI-H460; single dose 10^−5 M
# Description: as §1, §2, §3, §4
# CCRF-CEM = test: NCI-60 single dose screen, sulforhodamine B; assay type: cell-based, human; conditions: Leukaemia CCRF-CEM; single dose 10^−5 M
# Description: as §1, §2, §3, §4
# 786-0 = test: NCI-60 single dose screen, sulforhodamine B; assay type: cell-based, human; conditions: Renal cancer 786-0; single dose 10^−5 M
# Description: as §1, §2, §3, §4
# EKVX = test: NCI-60 single dose screen, sulforhodamine B; assay type: cell-based, human; conditions: Non-small cell lung cancer EKVX; single dose 10^−5 M
# Description: as §1, §2, §3, §4
# UO-31 = test: NCI-60 single dose screen, sulforhodamine B; assay type: cell-based, human; conditions: Renal cancer UO-31; single dose 10^−5 M
# Description: as §1, §2, §3, §4
# SK-MEL-2 = test: NCI-60 single dose screen, sulforhodamine B; assay type: cell-based, human; conditions: Melanoma SK-MEL-2; single dose 10^−5 M
# Description: as §1, §2, §3, §4
# U251 = test: NCI-60 single dose screen, sulforhodamine B; assay type: cell-based, human; conditions: CNS cancer U251; single dose 10^−5 M
# Description: as §1, §2, §3, §4
# M14 = test: NCI-60 single dose screen, sulforhodamine B; assay type: cell-based, human; conditions: Melanoma M14; single dose 10^−5 M
# Description: as §1, §2, §3, §4
# HCC-2998 = test: NCI-60 single dose screen, sulforhodamine B; assay type: cell-based, human; conditions: Colon cancer HCC-2998; single dose 10^−5 M
# Description: as §1, §2, §3, §4
# LOX IMVI = test: NCI-60 single dose screen, sulforhodamine B; assay type: cell-based, human; conditions: Melanoma LOX IMVI; single dose 10^−5 M
# Description: as §1, §2, §3, §4
# SNB-19 = test: NCI-60 single dose screen, sulforhodamine B; assay type: cell-based, human; conditions: CNS cancer SNB-19; single dose 10^−5 M
# Description: as §1, §2, §3, §4
# MOLT-4 = test: NCI-60 single dose screen, sulforhodamine B; assay type: cell-based, human; conditions: Leukaemia MOLT-4; single dose 10^−5 M
# Description: as §1, §2, §3, §4
# ACHN = test: NCI-60 single dose screen, sulforhodamine B; assay type: cell-based, human; conditions: Renal cancer ACHN; single dose 10^−5 M
# Description: as §1, §2, §3, §4
# OVCAR-8 = test: NCI-60 single dose screen, sulforhodamine B; assay type: cell-based, human; conditions: Ovarian cancer OVCAR-8; single dose 10^−5 M
# Description: as §1, §2, §3, §4
SMILES,melting point,GI% at 10^−5 M (COLO 205),GI% at 10^−5 M (SW-620),GI% at 10^−5 M (HOP-62),GI% at 10^−5 M (OVCAR-3),GI% at 10^−5 M (KM12),GI% at 10^−5 M (DU-145),GI% at 10^−5 M (HS 578T),GI% at 10^−5 M (NCI-H226),GI% at 10^−5 M (MDA-MB-435),GI% at 10^−5 M (SN12C),GI% at 10^−5 M (RPMI-8226),GI% at 10^−5 M (NCI-H322M),GI% at 10^−5 M (K-562),GI% at 10^−5 M (HT29),GI% at 10^−5 M (NCI-H23),GI% at 10^−5 M (RXF 393),GI% at 10^−5 M (NCI/ADR-RES),GI% at 10^−5 M (NCI-H460),GI% at 10^−5 M (CCRF-CEM),further results
"O=c1c2ccccc2nc(COc2ccccc2)n1NS(=O)(=O)c1ccccc1 [Compound 5a, N-(4-oxo-2-(phenoxymethyl)quinazolin-3(4H)-yl)benzenesulfonamide]",114 to 116 °C,– (– means GI < 10%),– (– means GI < 10%),16.59%,– (– means GI < 10%),– (– means GI < 10%),– (– means GI < 10%),– (– means GI < 10%),– (– means GI < 10%),– (– means GI < 10%),11.46%,– (– means GI < 10%),– (– means GI < 10%),– (– means GI < 10%),– (– means GI < 10%),11.73%,– (– means GI < 10%),– (– means GI < 10%),– (– means GI < 10%),– (– means GI < 10%),GI% at 10^−5 M (786-0): – (– means GI < 10%); GI% at 10^−5 M (EKVX): 15.21%; GI% at 10^−5 M (UO-31): 18.13%; GI% at 10^−5 M (SK-MEL-2): – (– means GI < 10%); GI% at 10^−5 M (U251): – (– means GI < 10%); GI% at 10^−5 M (M14): – (– means GI < 10%); GI% at 10^−5 M (HCC-2998): – (– means GI < 10%); GI% at 10^−5 M (LOX IMVI): – (– means GI < 10%); GI% at 10^−5 M (SNB-19): – (– means GI < 10%); GI% at 10^−5 M (MOLT-4): – (– means GI < 10%); GI% at 10^−5 M (ACHN): 11.23%; GI% at 10^−5 M (OVCAR-8): – (– means GI < 10%)
"CN1CCN(CC(=O)Nn2c(COc3ccccc3)nc3ccccc3c2=O)CC1 [Compound 8a, 2–(4-methylpiperazin-1-yl)-N-(4-oxo-2-(phenoxymethyl)quinazolin-3(4H)-yl)acetamide]",158 to 160 °C,15.89%,42.80%,– (– means GI < 10%),– (– means GI < 10%),55.03%,– (– means GI < 10%),13.94%,15.39%,94.15%,– (– means GI < 10%),23.17%,– (– means GI < 10%),67.8%,26.89%,– (– means GI < 10%),– (– means GI < 10%),28.41%,– (– means GI < 10%),10.65%,GI% at 10^−5 M (786-0): – (– means GI < 10%); GI% at 10^−5 M (EKVX): 13.93%; GI% at 10^−5 M (UO-31): 29.32%; GI% at 10^−5 M (SK-MEL-2): 12.84%; GI% at 10^−5 M (U251): 18.55%; GI% at 10^−5 M (M14): 21.06%; GI% at 10^−5 M (HCC-2998): 10.06%; GI% at 10^−5 M (LOX IMVI): 14.73%; GI% at 10^−5 M (SNB-19): 13.65%; GI% at 10^−5 M (MOLT-4): 11.86%; GI% at 10^−5 M (ACHN): – (– means GI < 10%); GI% at 10^−5 M (OVCAR-8): – (– means GI < 10%)
"COc1ccc(N2CCN(CC(=O)Nn3c(COc4ccccc4)nc4ccccc4c3=O)CC2)cc1 [Compound 8c, 2–(4-(4-methoxyphenyl)piperazin-1-yl)-N-(4-oxo-2-(phenoxymethyl)quinazolin-3(4H)-yl)acetamide]",100 to 102 °C,– (– means GI < 10%),– (– means GI < 10%),– (– means GI < 10%),– (– means GI < 10%),– (– means GI < 10%),– (– means GI < 10%),– (– means GI < 10%),– (– means GI < 10%),– (– means GI < 10%),– (– means GI < 10%),– (– means GI < 10%),– (– means GI < 10%),– (– means GI < 10%),– (– means GI < 10%),– (– means GI < 10%),– (– means GI < 10%),– (– means GI < 10%),– (– means GI < 10%),– (– means GI < 10%),GI% at 10^−5 M (786-0): – (– means GI < 10%); GI% at 10^−5 M (EKVX): – (– means GI < 10%); GI% at 10^−5 M (UO-31): 10.03%; GI% at 10^−5 M (SK-MEL-2): – (– means GI < 10%); GI% at 10^−5 M (U251): – (– means GI < 10%); GI% at 10^−5 M (M14): – (– means GI < 10%); GI% at 10^−5 M (HCC-2998): – (– means GI < 10%); GI% at 10^−5 M (LOX IMVI): – (– means GI < 10%); GI% at 10^−5 M (SNB-19): – (– means GI < 10%); GI% at 10^−5 M (MOLT-4): – (– means GI < 10%); GI% at 10^−5 M (ACHN): – (– means GI < 10%); GI% at 10^−5 M (OVCAR-8): – (– means GI < 10%)

# From publication PMC8843100, “Development of newly synthesised quinazolinone-based CDK2 inhibitors with potent efficacy against melanoma” (Journal of Enzyme Inhibition and Medicinal Chemistry, 2022)
